Experimental data published in PMC5391474, “Investigation of the Role of Protein Kinase D in Human Rhinovirus Replication” (Journal of Virology, 2017).

Assays:
Assay in all cases: biochemical
Set-up in all cases: in vitro kinase selectivity panel, protein and lipid kinases, single concentration, ATP at Km
Conditions in all cases: ATP at Km
ALK(h) = ALK(h) (Homo sapiens, UniProt Q9UM73)
How it was run: (§1)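 Single-point screen against a protein and lipid kinase panel: inhibitor at 1 μM. ATP concentration for every kinase equivalent to its Km.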

CDK2/cyclinA(h) = CDK2/cyclinA(h) (Homo sapiens, UniProt P24941)
How it was run: as §1

CHKA = CHKA (Homo sapiens, UniProt P35790)
How it was run: as §1

CHKB = CHKB (Homo sapiens, UniProt Q9Y259)
How it was run: as §1

CaMKI(h) = target: T1, CaMKI(h) (Homo sapiens, UniProt Q14012)
T1 construct: gene CAMK1
How it was run: as §1

DDR2(h) = DDR2(h) (Homo sapiens, UniProt Q16832)
How it was run: as §1

DGKG = DGKG (Homo sapiens, UniProt P49619)
How it was run: as §1

DGKZ = DGKZ (Homo sapiens, UniProt Q13574)
How it was run: as §1

EGFR(L858R)(h) = EGFR(L858R)(h) (Homo sapiens, UniProt P00533, L858R)
How it was run: as §1

EphB4(h) = EphB4(h) (Homo sapiens, UniProt P54760)
How it was run: as §1

IGF-1R(h) = target: T2, IGF-1R(h) (Homo sapiens, UniProt P08069)
T2 construct: gene IGF1R
How it was run: as §1

JAK2(h) = JAK2(h) (Homo sapiens, UniProt O60674)
How it was run: as §1

PDGFRα(D842V)(h) = target: T3, PDGFRα(D842V)(h) (Homo sapiens, UniProt P16234, D842V)
T3 construct: gene PDGFRA
How it was run: as §1

PIK3CG = PIK3CG (Homo sapiens, UniProt P48736)
How it was run: as §1

PIK4B = target: T4, PIK4B (Homo sapiens, UniProt Q9UBF8)
T4 construct: gene PI4KB
How it was run: as §1

PIP4K2A = PIP4K2A (Homo sapiens, UniProt P48426)
How it was run: as §1

Snk(h) = target: T5, Snk(h) (Homo sapiens, UniProt Q9NYY3)
T5 construct: gene PLK2
How it was run: as §1

p70S6K(h) = target: T6, p70S6K(h) (Homo sapiens, UniProt P23443)
T6 construct: gene RPS6KB1
How it was run: as §1

T2 sequence (P08069 whole entry): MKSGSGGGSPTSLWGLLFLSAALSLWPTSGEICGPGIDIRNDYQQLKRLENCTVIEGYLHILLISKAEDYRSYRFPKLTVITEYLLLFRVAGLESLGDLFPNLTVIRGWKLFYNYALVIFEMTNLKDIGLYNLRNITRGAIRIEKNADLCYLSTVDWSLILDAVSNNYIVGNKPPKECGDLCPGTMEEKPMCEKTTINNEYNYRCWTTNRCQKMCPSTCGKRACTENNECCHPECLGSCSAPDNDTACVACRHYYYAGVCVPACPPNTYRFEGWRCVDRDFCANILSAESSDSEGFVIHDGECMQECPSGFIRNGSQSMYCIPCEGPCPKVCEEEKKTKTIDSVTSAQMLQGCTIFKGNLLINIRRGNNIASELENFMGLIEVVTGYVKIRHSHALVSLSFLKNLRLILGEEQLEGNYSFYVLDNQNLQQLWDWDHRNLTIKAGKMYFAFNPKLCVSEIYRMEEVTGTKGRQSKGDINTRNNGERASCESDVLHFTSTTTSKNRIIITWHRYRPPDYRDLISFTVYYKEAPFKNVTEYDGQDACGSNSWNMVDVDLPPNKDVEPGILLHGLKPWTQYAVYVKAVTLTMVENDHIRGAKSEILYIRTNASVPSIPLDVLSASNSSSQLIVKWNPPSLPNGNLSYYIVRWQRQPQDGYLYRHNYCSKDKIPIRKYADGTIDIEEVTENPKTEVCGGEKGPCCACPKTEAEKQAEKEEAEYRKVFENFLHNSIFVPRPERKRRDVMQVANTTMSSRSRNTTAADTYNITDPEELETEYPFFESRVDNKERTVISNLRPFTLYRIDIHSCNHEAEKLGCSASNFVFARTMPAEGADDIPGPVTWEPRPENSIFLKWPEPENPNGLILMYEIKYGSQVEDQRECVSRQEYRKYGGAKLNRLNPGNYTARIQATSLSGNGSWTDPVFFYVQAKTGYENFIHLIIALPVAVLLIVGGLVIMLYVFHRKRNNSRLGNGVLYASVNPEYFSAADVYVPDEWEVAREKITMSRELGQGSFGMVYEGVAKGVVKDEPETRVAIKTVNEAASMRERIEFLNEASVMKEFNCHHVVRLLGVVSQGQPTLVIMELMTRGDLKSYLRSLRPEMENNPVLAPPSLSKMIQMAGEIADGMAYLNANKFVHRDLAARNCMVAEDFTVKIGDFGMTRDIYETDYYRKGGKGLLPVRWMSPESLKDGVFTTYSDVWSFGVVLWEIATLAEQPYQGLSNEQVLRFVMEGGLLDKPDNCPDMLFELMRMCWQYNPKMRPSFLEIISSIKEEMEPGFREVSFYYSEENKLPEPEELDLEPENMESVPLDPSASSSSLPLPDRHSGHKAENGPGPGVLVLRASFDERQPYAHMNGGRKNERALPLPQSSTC
Sequence of EphB4(h) (P54760 whole entry): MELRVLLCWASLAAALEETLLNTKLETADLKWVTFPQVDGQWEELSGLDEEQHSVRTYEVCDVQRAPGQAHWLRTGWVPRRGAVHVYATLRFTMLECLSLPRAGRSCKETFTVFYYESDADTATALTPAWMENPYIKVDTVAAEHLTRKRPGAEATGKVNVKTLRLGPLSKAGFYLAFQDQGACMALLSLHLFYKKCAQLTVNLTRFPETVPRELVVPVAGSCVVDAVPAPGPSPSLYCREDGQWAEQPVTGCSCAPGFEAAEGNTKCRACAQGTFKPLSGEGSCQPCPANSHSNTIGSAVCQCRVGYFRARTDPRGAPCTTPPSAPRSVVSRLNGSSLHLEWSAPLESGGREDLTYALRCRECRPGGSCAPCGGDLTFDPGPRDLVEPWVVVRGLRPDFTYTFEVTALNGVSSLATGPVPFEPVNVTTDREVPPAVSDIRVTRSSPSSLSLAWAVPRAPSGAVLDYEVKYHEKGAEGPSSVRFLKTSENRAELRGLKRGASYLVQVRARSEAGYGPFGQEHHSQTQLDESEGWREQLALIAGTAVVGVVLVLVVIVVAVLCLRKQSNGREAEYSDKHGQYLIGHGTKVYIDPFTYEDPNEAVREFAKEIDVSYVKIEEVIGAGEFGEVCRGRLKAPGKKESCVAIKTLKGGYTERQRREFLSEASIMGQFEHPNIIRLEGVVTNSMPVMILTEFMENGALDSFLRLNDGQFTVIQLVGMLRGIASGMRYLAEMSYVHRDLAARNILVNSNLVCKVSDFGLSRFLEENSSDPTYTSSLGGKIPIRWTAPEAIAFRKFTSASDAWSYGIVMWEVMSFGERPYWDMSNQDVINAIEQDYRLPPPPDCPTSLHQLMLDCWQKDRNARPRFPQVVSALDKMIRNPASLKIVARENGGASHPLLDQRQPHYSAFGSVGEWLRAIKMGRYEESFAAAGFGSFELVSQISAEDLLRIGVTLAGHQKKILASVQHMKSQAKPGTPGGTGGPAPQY
T1 sequence (Q14012 whole entry): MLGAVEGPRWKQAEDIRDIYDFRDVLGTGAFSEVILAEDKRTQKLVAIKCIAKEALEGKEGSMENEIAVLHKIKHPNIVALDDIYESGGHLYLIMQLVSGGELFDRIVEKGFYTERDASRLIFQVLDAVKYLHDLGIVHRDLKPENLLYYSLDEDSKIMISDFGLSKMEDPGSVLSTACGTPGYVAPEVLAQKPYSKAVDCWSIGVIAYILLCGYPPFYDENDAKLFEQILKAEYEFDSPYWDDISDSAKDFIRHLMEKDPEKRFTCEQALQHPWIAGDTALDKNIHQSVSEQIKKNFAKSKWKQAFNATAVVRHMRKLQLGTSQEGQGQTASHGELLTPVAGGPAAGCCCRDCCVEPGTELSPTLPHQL
Sequence of CHKB (Q9Y259 whole entry): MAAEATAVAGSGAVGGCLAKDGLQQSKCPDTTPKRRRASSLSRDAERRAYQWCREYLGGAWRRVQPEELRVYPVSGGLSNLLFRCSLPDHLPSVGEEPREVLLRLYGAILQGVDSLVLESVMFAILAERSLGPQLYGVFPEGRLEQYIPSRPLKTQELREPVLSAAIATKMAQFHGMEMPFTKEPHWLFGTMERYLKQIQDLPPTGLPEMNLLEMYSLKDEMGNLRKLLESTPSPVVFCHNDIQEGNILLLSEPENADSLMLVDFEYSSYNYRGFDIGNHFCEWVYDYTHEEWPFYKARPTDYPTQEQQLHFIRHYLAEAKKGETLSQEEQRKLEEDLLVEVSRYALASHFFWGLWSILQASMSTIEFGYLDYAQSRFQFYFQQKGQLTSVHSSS
Sequence of DGKZ (Q13574 whole entry): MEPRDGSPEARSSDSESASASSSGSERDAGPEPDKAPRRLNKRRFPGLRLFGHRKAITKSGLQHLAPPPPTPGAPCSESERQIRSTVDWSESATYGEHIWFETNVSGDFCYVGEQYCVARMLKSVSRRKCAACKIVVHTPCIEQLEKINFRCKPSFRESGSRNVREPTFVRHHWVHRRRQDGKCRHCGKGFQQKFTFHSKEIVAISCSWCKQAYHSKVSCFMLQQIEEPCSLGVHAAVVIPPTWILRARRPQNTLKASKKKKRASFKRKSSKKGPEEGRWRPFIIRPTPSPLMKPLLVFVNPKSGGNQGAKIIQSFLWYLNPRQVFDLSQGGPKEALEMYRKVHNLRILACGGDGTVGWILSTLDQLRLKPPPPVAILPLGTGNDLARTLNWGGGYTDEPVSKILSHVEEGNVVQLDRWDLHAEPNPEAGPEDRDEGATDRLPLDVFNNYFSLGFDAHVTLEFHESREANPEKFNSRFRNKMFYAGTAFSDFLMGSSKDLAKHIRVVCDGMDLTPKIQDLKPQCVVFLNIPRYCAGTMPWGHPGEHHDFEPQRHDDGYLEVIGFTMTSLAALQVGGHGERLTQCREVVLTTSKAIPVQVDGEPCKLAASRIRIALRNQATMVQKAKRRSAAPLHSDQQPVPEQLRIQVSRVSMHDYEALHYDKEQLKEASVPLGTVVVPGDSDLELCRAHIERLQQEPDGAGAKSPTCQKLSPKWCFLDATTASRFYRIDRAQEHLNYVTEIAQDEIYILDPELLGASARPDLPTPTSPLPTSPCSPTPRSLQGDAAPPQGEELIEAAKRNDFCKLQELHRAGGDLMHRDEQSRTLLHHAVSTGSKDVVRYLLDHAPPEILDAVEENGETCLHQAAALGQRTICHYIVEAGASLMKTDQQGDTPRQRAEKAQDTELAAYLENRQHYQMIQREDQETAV
Sequence of CHKA (P35790 whole entry): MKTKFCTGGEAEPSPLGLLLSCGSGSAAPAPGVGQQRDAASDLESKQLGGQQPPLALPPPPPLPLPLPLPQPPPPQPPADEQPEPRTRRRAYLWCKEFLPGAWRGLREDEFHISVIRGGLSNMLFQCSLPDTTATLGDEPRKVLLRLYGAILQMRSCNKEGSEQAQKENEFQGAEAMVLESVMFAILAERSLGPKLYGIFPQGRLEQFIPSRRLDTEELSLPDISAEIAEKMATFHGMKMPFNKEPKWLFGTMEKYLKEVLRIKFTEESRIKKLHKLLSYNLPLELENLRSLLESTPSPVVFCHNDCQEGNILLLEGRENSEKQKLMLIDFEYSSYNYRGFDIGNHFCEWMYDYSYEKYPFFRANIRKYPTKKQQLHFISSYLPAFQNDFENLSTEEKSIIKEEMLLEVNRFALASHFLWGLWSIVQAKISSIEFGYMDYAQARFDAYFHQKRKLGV
Sequence of PIP4K2A (P48426 whole entry): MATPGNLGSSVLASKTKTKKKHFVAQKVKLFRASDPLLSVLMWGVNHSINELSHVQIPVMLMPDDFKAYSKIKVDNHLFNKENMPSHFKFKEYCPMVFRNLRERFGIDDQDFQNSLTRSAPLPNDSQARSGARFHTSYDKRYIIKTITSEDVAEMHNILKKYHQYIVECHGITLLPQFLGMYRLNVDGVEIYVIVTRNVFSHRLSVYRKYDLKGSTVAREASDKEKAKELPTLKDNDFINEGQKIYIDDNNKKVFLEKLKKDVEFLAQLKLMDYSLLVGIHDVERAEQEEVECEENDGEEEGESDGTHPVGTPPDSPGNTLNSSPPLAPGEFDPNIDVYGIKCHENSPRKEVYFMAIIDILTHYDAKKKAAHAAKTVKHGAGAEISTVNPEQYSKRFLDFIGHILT

Work on CC[C@@H](N)CNc1ccnc(-c2cc(-c3cnn(C)c3)ccc2O)n1 [CRT0066101] yielded an inhibition at 1 µM (ALK(h)) of 3%, an inhibition at 1 µM (CDK2/cyclinA(h)) of 53% and an inhibition at 1 µM (CHKA) of 1%. It also gave an inhibition at 1 µM (CHKB) of 3%, an inhibition at 1 µM (CaMKI(h)) of 2% and an inhibition at 1 µM (DDR2(h)) of -3%. It also gave an inhibition at 1 µM (DGKG) of -3%, an inhibition at 1 µM (DGKZ) of -1% and an inhibition at 1 µM (EGFR(L858R)(h)) of -1%. It also gave an inhibition at 1 µM (EphB4(h)) of 25%, an inhibition at 1 µM (IGF-1R(h)) of -14% and an inhibition at 1 µM (JAK2(h)) of 10%. The inhibition at 1 µM (PDGFRα(D842V)(h)) was 61%, the inhibition at 1 µM (PIK3CG) was 29% and the inhibition at 1 µM (PIK4B) was 33%. The inhibition at 1 µM (PIP4K2A) was -22%, the inhibition at 1 µM (Snk(h)) was -1% and the inhibition at 1 µM (p70S6K(h)) was 31%.
